Source: US11618765B2, “Broad-spectrum antiviral nucleoside derivatives” (priority 2020, dated 2023)

Tests used:
[1] = biological target: T1, HIV-reverse transcriptase (Human immunodeficiency virus type 1 group M subtype B, UniProt P04585); experiment: inhibition of HIV-reverse transcriptase; assay type: biochemical; settings: ratio of IC50 values
From the text: Another example of a pyrimidine nucleoside analog as a direct acting antiviral is imidine (dImd), a thymidine analog, [17]. […] Its monophosphate (dIMP) readily incorporated into proviral DNA in place of dTMP, preferentially opposite to adenine (A) in the viral RNA template and caused a decrease in the fidelity of replication at the incorporated sites, due to misincorporation.

[2] = biological target: T1, HIV-reverse transcriptase; settings: read-out: IC50 for inhibition of HIV-reverse transcriptase; cited from earlier work
[3] = biological target: T2, Molt-4 DNA polymerase a (Homo sapiens, UniProt P09884); settings: read-out: IC50 for inhibition of Molt-4 DNA polymerase a; cited from earlier work
T2 construct: host or cells: Molt-4
T2 sequence (P09884 whole entry): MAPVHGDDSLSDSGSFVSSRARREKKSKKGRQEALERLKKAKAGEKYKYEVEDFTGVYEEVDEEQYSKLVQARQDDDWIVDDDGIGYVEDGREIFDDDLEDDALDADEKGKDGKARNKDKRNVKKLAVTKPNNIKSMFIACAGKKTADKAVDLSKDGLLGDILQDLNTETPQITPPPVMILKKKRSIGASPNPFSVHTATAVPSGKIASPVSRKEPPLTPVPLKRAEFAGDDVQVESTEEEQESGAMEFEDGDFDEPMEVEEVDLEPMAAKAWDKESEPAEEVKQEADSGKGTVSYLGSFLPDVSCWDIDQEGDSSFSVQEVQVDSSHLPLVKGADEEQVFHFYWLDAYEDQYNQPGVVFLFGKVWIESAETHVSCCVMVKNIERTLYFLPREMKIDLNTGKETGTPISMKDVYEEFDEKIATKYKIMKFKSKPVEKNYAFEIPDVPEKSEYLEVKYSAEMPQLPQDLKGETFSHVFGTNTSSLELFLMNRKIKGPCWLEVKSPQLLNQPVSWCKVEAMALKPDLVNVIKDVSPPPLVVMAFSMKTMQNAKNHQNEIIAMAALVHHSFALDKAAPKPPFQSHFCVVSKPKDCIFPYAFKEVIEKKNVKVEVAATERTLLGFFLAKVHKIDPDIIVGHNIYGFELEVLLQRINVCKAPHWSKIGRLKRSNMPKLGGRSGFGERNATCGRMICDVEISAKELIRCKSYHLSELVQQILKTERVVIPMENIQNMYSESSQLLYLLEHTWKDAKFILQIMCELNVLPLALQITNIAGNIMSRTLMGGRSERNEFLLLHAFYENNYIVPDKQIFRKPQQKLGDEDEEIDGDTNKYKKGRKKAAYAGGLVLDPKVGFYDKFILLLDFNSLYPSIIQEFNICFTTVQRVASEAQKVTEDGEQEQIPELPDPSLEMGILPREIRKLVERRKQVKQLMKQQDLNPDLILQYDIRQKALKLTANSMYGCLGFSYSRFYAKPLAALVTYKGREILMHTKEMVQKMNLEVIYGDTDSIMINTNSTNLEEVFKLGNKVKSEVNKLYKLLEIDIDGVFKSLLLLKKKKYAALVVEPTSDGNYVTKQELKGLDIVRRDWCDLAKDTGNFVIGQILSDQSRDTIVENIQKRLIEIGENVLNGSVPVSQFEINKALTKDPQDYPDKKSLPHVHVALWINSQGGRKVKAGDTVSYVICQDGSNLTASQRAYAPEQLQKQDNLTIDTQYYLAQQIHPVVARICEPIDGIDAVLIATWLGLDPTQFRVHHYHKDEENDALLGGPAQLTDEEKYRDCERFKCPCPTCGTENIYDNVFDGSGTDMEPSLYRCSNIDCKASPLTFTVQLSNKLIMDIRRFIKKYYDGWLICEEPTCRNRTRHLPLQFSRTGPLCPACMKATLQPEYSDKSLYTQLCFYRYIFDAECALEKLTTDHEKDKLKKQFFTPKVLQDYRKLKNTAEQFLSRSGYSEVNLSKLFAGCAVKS
T2 sequence (Q14181 whole entry partner): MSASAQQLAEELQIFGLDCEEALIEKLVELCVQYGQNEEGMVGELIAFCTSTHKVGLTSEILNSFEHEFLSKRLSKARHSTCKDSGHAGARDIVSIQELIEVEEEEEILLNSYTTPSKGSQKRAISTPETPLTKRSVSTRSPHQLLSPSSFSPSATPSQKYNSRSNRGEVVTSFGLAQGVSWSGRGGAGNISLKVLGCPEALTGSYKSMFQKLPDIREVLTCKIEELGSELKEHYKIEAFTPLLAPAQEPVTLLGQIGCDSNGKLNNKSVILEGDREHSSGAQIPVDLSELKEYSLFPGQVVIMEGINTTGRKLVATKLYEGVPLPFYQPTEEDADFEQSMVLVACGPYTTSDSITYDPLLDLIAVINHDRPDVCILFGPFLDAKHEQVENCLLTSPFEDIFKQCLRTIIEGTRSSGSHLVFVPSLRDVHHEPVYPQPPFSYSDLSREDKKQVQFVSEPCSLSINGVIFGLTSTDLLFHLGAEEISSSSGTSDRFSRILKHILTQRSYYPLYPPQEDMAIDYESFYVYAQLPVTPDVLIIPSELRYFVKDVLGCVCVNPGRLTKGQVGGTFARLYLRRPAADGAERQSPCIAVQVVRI
T2 sequence (P49642 whole entry partner): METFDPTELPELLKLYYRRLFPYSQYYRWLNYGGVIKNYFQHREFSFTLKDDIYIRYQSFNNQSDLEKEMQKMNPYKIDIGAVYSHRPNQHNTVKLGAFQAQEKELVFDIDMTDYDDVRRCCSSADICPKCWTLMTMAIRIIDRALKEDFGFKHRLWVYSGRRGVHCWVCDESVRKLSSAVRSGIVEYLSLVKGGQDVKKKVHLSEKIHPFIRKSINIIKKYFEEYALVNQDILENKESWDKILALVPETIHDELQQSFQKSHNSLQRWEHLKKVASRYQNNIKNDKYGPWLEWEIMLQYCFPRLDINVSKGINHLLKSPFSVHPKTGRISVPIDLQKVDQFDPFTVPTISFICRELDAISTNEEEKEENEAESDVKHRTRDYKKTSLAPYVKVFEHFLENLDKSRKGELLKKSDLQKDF
T2 sequence (P49643 whole entry partner): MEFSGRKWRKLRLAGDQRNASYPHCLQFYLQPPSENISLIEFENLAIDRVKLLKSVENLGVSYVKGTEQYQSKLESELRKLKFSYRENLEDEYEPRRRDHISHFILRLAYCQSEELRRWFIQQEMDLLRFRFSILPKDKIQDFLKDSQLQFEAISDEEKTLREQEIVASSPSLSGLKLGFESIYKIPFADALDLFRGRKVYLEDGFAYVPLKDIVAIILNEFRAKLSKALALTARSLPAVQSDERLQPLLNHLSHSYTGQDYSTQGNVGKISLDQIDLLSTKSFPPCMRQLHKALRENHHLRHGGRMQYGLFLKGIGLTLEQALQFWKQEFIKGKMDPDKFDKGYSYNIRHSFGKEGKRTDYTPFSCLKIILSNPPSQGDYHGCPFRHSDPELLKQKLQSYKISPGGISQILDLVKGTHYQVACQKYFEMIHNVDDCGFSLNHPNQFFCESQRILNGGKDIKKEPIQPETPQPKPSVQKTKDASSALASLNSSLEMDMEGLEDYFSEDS

[4] = test system: human cells in culture; settings: cited from earlier work

| Compound | selectivity (HIV-reverse transcriptase vs Molt-4 DNA polymerase a) [1] | IC50 [2] | IC50 [3] | cytotoxicity [4] |
| --- | --- | --- | --- | --- |
| CC(=O)c1cn(C2CC(O)C(COP(=O)(O)OP(=O)(O)OP(=O)(O)O)O2)c(=O)[nH]1 (stereo not shown) [dImdTP] | > 400 fold | 0.038 µM | 17 µM |  |
| CC(=O)c1cn([C@H]2C[C@H](O)[C@@H](CO)O2)c(=O)[nH]1 [imidine, 1-(2-deoxy-β-D-ribofuranosyl)-4-acetylimidazolin-2-one] |  |  |  | no cytotoxicity |
